According to patent publication US11584765B2 (priority 2017, dated 2023):

Tested on: C57BL/6 mice
Experiment: animal or person
Format: in vivo
Details: Mus musculus, sc, 0.5 h, s.c. administration, 30 min, 55° C. water, read-out: ED50 (mg/kg) at 30 min on C57BL/6 mice in Warm-water Tail-flick Test

SMILES | ED50
CCOC[C@@]1(CCc2ccccc2)CCN(C(C)c2ccc(C)nc2)C1.Cl (stereo partly drawn) [Compound 303, 5-(1-((S)-3-(ethoxymethyl)-3-phenethylpyrrolidin-1-yl)ethyl)-2-methylpyridine HCl] | < 10 mg/kg
CCOCC1(CCc2ccc(C)s2)CCN(Cc2ccc(C)nc2)CC1 [Compound 304, 5-((4-(ethoxymethyl)-4-(2-(5-methylthiophen-2-yl)ethyl)piperidin-1-yl)methyl)-2-methylpyridine] | < 10 mg/kg
CCOCC1(CCc2ccccc2)CCN(C(C)c2ccc(C)nc2C)C1 (centres unmarked) [Compound 305, 3-(1-(3-(ethoxymethyl)-3-phenethylpyrrolidin-1-yl)ethyl)-2,6-dimethylpyridine] | < 10 mg/kg
CCOCC1(CCc2ccsc2)CCN(Cc2ccc(C)nc2C)C1 (centres unmarked) [Compound 306, 3-((3-(ethoxymethyl)-3-(2-(thiophen-3-yl)ethyl)pyrrolidin-1-yl)methyl)-2,6-dimethylpyridine] | < 10 mg/kg
CCOC[C@@]1(CCc2ccccc2)CCN(Cc2ccc(C)nc2C)C1 [Compound 307, (S)-3-((3-(ethoxymethyl)-3-phenethylpyrrolidin-1-yl)methyl)-2,6-dimethylpyridine] | < 10 mg/kg
CCOCC1(CCc2nc3ccccc3o2)CCN(Cc2cccnc2)C1 (centres unmarked) [Compound 308, 2-(2-(3-(ethoxymethyl)-1-(pyridin-3-ylmethyl)pyrrolidin-3-yl)ethyl)benzo[d]oxazole] | > 10 mg/kg
CCOCC1(CCc2csc3ccccc23)CCN(Cc2cccnc2)C1 (centres unmarked) [Compound 309, 3-((3-(2-(benzo[b]thiophen-3-yl)ethyl)-3-(ethoxy-methyl)pyrrolidin-1-yl)methyl)pyridine] | > 10 mg/kg
Cc1ccc(CN2CCC(CCc3ccccc3)(c3ccccn3)CC2)c(C)n1 [Compound 310, 2,6-dimethyl-3-((4-phenethyl-4-(pyridin-2-yl)piperidin-1-yl)methyl)pyridine] | < 10 mg/kg
CCOCC1(CCc2ccc(F)cc2)CCN(Cc2ccc(C)nc2C)C1 (centres unmarked) [Compound 311, 3-((3-(ethoxymethyl)-3-(4-fluoro-phenethyl)pyrrolidin-1-yl)methyl)-2,6-dimethylpyridine] | < 10 mg/kg
CCOCC1(CCc2cc(C)sc2C)CCN(Cc2cnn(C)c2)C1 (centres unmarked) [Compound 312, 4-((3-(2-(2,5-dimethylthiophen-3-yl)ethyl)-3-(ethoxy-methyl)pyrrolidin-1-yl)methyl)-1-methyl-1H-pyrazole] | < 10 mg/kg
CCOCC1(c2ccccn2)CCN(Cc2ccc(C)nc2C)C1 (centres unmarked) [Compound 313, 3-((3-(ethoxymethyl)-3-(pyridin-2-yl)pyrrolidin-1-yl)methyl)-2,6-dimethylpyridine] | > 10 mg/kg
COCCC1(c2ccccn2)CCN(Cc2ccc(C)nc2C)C1 (centres unmarked) [Compound 314, 3-((3-(2-methoxyethyl)-3-(pyridin-2-yl)pyrrolidin-1-yl)methyl)-2,6-dimethylpyridine] | > 10 mg/kg
CCOCC1(CCc2ccccc2)CCN(Cc2cccn2-c2cccnc2)C1 (centres unmarked) [Compound 315, 3-(2-((3-(ethoxymethyl)-3-phenethylpyrrolidin-1-yl)methyl)-1H-pyrrol-1-yl)pyridine] | > 10 mg/kg
CCOCC1(CCc2ccccc2)CCN(Cc2ccccc2-c2cccs2)C1 (centres unmarked) [Compound 316, 3-(ethoxymethyl)-3-phenethyl-1-(2-(thiophen-2-yl)benzyl)pyrrolidine] | > 10 mg/kg
CCOCC1(CCc2ccccc2)CCN(Cc2ccccc2-c2ccco2)C1 (centres unmarked) [Compound 317] | > 10 mg/kg
CCOC[C@@]1(CCc2ccsc2)CCN(Cc2ccc(C)nc2)C1 [Compound 318, (S)-5-((3-(ethoxymethyl)-3-(2-(thiophen-3-yl)ethyl)pyrrolidin-1-yl)methyl)-2-methylpyridine] | < 10 mg/kg
CCOC[C@@]1(CCc2ccccc2)CCN(Cc2ccc(C)nc2)C1 [Compound 319, (S)-5-((3-(ethoxymethyl)-3-phenethylpyrrolidin-1-yl)methyl)-2-methylpyridine] | < 10 mg/kg
CCOC[C@@]1(CCc2ccc(F)cc2)CCN(Cc2ccc(C)nc2)C1 [Compound 320, (S)-5-((3-(ethoxymethyl)-3-(4-fluoro-phenethyl)pyrrolidin-1-yl)methyl)-2-methylpyridine] | < 10 mg/kg
CCOC[C@@]1(CCc2cc(C)cs2)CCN(Cc2ccc(C)nc2)C1 [Compound 321, (S)-5-((3-(ethoxymethyl)-3-(2-(4-methylthiophen-2-yl)ethyl)pyrrolidin-1-yl)methyl)-2-methylpyridine] | < 10 mg/kg
CCOC[C@@]1(CCc2ccc(F)cc2)CCN(Cc2cccnc2)C1 [Compound 322, (S)-3-((3-(ethoxymethyl)-3-(4-fluorophenethyl)pyrrolidin-1-yl)methyl)pyridine] | < 10 mg/kg
CCOC[C@@]1(CCc2csc(C)c2)CCN(Cc2cccnc2)C1 [Compound 323, (S)-3-((3-(ethoxymethyl)-3-(2-(5-methylthiophen-3-yl)ethyl)pyrrolidin-1-yl)methyl)pyridine] | < 10 mg/kg
CCOC[C@@]1(CCc2ccsc2)CCN(Cc2ccc(NC(C)=O)cc2)C1 [Compound 324, (S)-N-(4-((3-(ethoxymethyl)-3-(2-(thiophen-3-yl)ethyl)pyrrolidin-1-yl)methyl)phenyl)acetamide] | < 10 mg/kg

SMILES | ED50
CCOCC1(CCc2ccccc2)CCN(C(C)c2cccnc2)CC1 (centres unmarked) [Compound 327, 3-(1-(4-(ethoxymethyl)-4-phenethylpiperidin-1-yl)ethyl)pyridine] | < 10 mg/kg
Cc1ccc(C(C)N2CCC(CCc3ccccc3)(c3ccccn3)CC2)c(C)n1 (centres unmarked) [Compound 328, 2,6-dimethyl-3-(1-(4-phenethyl-4-(pyridin-2-yl)piperidin-1-yl)ethyl)pyridine] | < 10 mg/kg
CCOC[C@@]1(CCc2cc(C)cs2)CCN(Cc2ccc(C)nc2C)C1 [Compound 329, (S)-3-((3-(ethoxymethyl)-3-(2-(4-methylthiophen-2-yl)ethyl)pyrrolidin-1-yl)methyl)-2,6-dimethylpyridine] | < 10 mg/kg
CCOC[C@@]1(CCc2csc(C)c2)CCN(Cc2ccc(C)nc2C)C1 [Compound 330, (S)-3-((3-(ethoxymethyl)-3-(2-(5-methylthiophen-yl)ethyl)pyrrolidin-1-yl)methyl)-2,6-dimethylpyridine] | < 10 mg/kg
CCOC[C@@]1(CCc2cscc2C)CCN(Cc2ccc(C)nc2C)C1 [Compound 331, (S)-3-((3-(ethoxymethyl)-3-(2-(4-methylthiophen-3-yl)ethyl)pyrrolidin-1-yl)methyl)-2,6-dimethylpyridine] | < 10 mg/kg
CCOCC1(CCc2ccccc2)CCN(C(C)c2cnn(C)c2)C1 (stereo not drawn) [Compound 332, 4-(1-(3-(ethoxymethyl)-3-phenethylpyrrolidin-1-yl)ethyl)-l-methyl-1H-pyrazole] | < 10 mg/kg
CCOC[C@@]1(CCc2cccs2)CCN(Cc2ccc(C)nc2)C1 [Compound 333, (S)-5-((3-(ethoxymethyl)-3-(2-(thiophen-2-yl)ethyl)pyrrolidin-1-yl)methyl)-2-methylpyridine] | < 10 mg/kg
CCOC[C@@]1(CCc2cccs2)CCN(Cc2ccc(C)nc2C)C1 [Compound 334, (S)-3-((3-(ethoxymethyl)-3-(2-(thiophen-2-yl)ethyl)pyrrolidin-1-yl)methyl)-2,6-dimethylpyridine] | < 10 mg/kg
CCOC[C@@]1(CCc2csc(C)c2)CCN(Cc2ccc(C)nc2)C1 [Compound 335, (S)-5-((3-(ethoxymethyl)-3-(2-(5-methylthiophen-3-yl)ethyl)pyrrolidin-1-yl)methyl)-2-methylpyridine] | < 10 mg/kg
CCOC[C@@]1(CCc2ccsc2)CCN(Cc2ccc(C)nc2C)C1 [Compound 336] | < 10 mg/kg
CCOC[C@@]1(CCc2cc(C)cs2)CCN(Cc2cccnc2)C1.Cl [Compound 337] | < 10 mg/kg
CCOCC1(CCc2ccccc2)CCN(CC(O)c2ccc(C)nc2)C1 (centres unmarked) [Compound 338, 2-(3-(ethoxymethyl)-3-phenethylpyrrolidin-1-yl)-1-(6-methylpyridin-3-yl)ethanol] | > 10 mg/kg
Cc1ccc(N(C)N2CCC(CCc3ccccc3)(c3ccccn3)CC2)c(C)n1 [Compound 339, N,2,6-trimethyl-N-(4-phenethyl-4-(pyridin-2-yl)piperidin-1-yl)pyridin-3-amine] | > 10 mg/kg
CCOCC1(CCc2ccccc2)CCN(Cc2csc(C)n2)C1 (centres unmarked) [Compound 340, 4-((3-(ethoxymethyl)-3-phenethylpyrrolidin-1-yl)methyl)-2-methylthiazole] | > 10 mg/kg
CCOCC1(CCc2ccccc2)CCN(C(C)c2csc(C)n2)C1 (centres unmarked) [Compound 341, 4-(1-(3-(ethoxymethyl)-3-phenethylpyrrolidin-1-yl)ethyl)-2-methylthiazole] | < 10 mg/kg
CCOCC1(CCc2ccccc2)CCN(C(CO)c2ccc(C)nc2)C1 (centres unmarked) [Compound 342, 2-(3-(ethoxymethyl)-phenethylpyrrolidin-1-yl)-2-(6-methylpyridin-3-yl)ethanol] | < 10 mg/kg
CCOCC1(CCc2ccccc2)CCN(C(C)(C)c2cccnc2)C1 (centres unmarked) [Compound 343, 3-(2-(3-(ethoxymethyl)-3-phenethylpyrrolidin-1-yl)propan-2-yl)pyridine] | < 10 mg/kg
CCOC[C@@]1(CCc2ccc(F)s2)CCN(Cc2ccc(C)nc2)C1 [Compound 344] | < 10 mg/kg
CCOC[C@@]1(CCc2ccc(F)s2)CCN(Cc2cccnc2)C1 [Compound 345, (S)-3-((3-(ethoxymethyl)-3-(2-(5-fluorothiophen-2-yl)ethyl)pyrrolidin-1-yl)methyl)pyridine] | < 10 mg/kg
CCOCC1(CCc2ccccc2)CCN(C(C)c2cnc(C)s2)C1 (centres unmarked) [Compound 346, 5-(1-(3-(ethoxymethyl)-3-phenethylpyrrolidin-1-yl)ethyl)-2-methylthiazole] | < 10 mg/kg
CCOCC1(CCc2ccccc2)CCN(C(C)C(O)c2ccc(C)nc2)C1 (centres unmarked) [Compound 347, 2-(3-(ethoxymethyl)-3-phenethylpyrrolidin-1-yl)-1-(6-methylpyridin-3-yl)propan-1-ol] | > 10 mg/kg
Cc1ccc(CN2CC[C@](CCc3ccsc3)([C@@H]3CCCO3)C2)cn1 [Compound 348, 2-methyl-5-(((S)-3-((S)-tetrahydrofuran-2-yl)-3-(2-(thiophen-3-yl)ethyl)pyrrolidin-1-yl)methyl)pyridine] | < 10 mg/kg
